Each block holds one molecule with its values, some of them ahead of it. Ends that are not written are not given here.
Tests used:
[1] = target: T1, DPP-IV (Dipeptidyl peptidase IV from porcine kidney) (Sus scrofa, UniProt P22411); experiment: In vitro stability to DPP-IV digestion; type: in vitro ADME; conditions: for Degradation % at 24 h: peptide 0.1 mg/ml in PBS
T1 construct: purchased Sigma; host or cells: porcine kidney (tissue-derived)
Method: The enzymatic degradation was calculated from His-Ala title of each sample, as shown for example in FIG. 1

diabetic (db/db) mice = experiment: Oral glucose tolerance test in diabetic mice; type: in vivo; conditions: for Tglu<100 mg/dl (time to lower the blood glucose level under 100 (±5) mg/dl) / Glumax (maximum blood glucose level) / HD% control (total hypoglycemic degree as percent of saline control): 100 μg/kg 30 min before oral glucose […]; for Glumax (maximum blood glucose level): first 180 min; for HD% control (total hypoglycemic degree as percent of saline control): AUC 0-180 min vs saline
Method: Food was withdrawn for an 18-h period prior to and for 3 hours after oral administration of a glucose solution (1.5 g/kg body weight); food was again […] 6 hours after glucose administration. 40 μg/ml of products to be tested and negative control (phosphate buffered saline) were administered by subcutaneous injection of a volume of 2.5 ml/kg body weight, 30 minutes prior glucose administration. Blood samples were collected from the tail vein of conscious mice before the injection and at 15, 30, 60, 120, 180, 240, 300, 1440 min post injection and glucose concentration was measured by gluco tester Ascensia Elite (Bayer).

T1 sequence (P22411 whole entry): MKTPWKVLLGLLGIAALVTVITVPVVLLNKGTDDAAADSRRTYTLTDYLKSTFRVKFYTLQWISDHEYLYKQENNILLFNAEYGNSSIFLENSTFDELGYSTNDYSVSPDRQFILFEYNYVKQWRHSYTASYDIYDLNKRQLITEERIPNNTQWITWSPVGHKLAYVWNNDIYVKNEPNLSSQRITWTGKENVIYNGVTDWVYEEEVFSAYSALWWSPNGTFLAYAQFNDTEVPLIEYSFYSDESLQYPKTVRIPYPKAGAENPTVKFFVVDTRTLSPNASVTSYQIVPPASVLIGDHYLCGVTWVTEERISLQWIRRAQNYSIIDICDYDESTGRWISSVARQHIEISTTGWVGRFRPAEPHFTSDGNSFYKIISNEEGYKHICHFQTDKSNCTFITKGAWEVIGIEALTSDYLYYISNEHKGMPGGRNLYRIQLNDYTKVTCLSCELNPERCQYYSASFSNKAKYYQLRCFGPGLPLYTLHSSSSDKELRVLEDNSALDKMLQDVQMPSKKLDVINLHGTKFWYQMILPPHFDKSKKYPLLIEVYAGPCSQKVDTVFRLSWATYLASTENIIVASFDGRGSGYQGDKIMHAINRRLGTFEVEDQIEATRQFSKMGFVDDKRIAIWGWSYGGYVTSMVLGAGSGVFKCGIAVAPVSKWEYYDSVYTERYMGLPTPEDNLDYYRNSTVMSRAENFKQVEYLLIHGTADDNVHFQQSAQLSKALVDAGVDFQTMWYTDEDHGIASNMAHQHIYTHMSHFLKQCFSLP

Molecule: CC[C@H](C)[C@H](NC(=O)[C@H](Cc1ccccc1)NC(=O)[C@H](CCC(=O)O)NC(=O)[C@H](CCCCN)NC(=O)[C@H](C)NC(=O)[C@H](C)NC(=O)[C@H](CCC(N)=O)NC(=O)CNC(=O)[C@H](CCC(=O)O)NC(=O)[C@H](CC(C)C)NC(=O)[C@H](Cc1ccc(O)cc1)NC(=O)[C@H](CO)NC(=O)[C@H](CO)NC(=O)[C@@H](NC(=O)[C@H](CC(=O)O)NC(=O)[C@H](CO)NC(=O)[C@@H](NC(=O)[C@H](Cc1ccccc1)NC(=O)[C@@H](NC(=O)CNC(=O)[C@H](CCC(=O)O)NC(=O)[C@H](C)NC(=O)[C@@H](N)Cc1c[nH]cn1)[C@@H](C)O)[C@@H](C)O)C(C)C)C(=O)N[C@@H](C)C(=O)N[C@@H](Cc1c[nH]c2ccccc12)C(=O)N[C@@H](CC(C)C)C(=O)N[C@H](C(=O)N[C@@H](CCCCN)C(=O)NCC(=O)N[C@@H](CCCNC(=N)N)C(N)=O)C(C)C [GLP-1-amide, GLP-1(7-36)-amide, reference compound]
- Degradation % (at 8 h) ([1]; DPP-IV 5 U/ml, 37° C., at 8 h): 100 (at 8 h) %
- inactivation by cleavage of the N-terminal dipeptide ([1]; DPP-IV, after 8 hours at 37° C.): completely inactivated

Molecule: GLP-1-amide-Q17-PEG 20 kDa: GLP-1-amide monopegylated on glutamine 17 with 20 kDa m-PEG-amine by microbial transglutaminase
- final biological efficacy compared with exenatide (diabetic (db/db) mice): comparable or better than the one displayed by exenatide
- Tglu<100 mg/dl (time to lower the blood glucose level under 100 (±5) mg/dl) (diabetic (db/db) mice): 60 min
- Glumax (maximum blood glucose level) (diabetic (db/db) mice): 213.9 mg/dL
- HD% control (total hypoglycemic degree as percent of saline control) (diabetic (db/db) mice): 58.3%
- Degradation % at 24 h ([1]; DPP-IV 5 U/ml, 37° C.): 37%

Molecule: GLP-1-amide-Q17-PEG 30 kDa: GLP-1-amide monopegylated on glutamine 17 with 30 kDa m-PEG-amine by microbial transglutaminase
- final biological efficacy compared with exenatide (diabetic (db/db) mice): comparable or better than the one displayed by exenatide
- Tglu<100 mg/dl (time to lower the blood glucose level under 100 (±5) mg/dl) (diabetic (db/db) mice): 60 min
- Glumax (maximum blood glucose level) (diabetic (db/db) mice): 167.7 mg/dL
- HD% control (total hypoglycemic degree as percent of saline control) (diabetic (db/db) mice): 63.5%
- Degradation % at 24 h ([1]; DPP-IV 5 U/ml, 37° C.): 25%

Molecule: GLP-1-amide-Q17N/A24Q-PEG 20 kDa: Q17N/A24Q-GLP-1-amide monopegylated on glutamine 24 with 20 kDa m-PEG-amine by microbial transglutaminase (HAEGTFTSDVSSYLEGNAAKEFIQ(PEG 20 kDa)WLVKGRG-NH2; UniProt P01275 98-128, looked up, variant Q17N A24Q)
- Degradation % at 24 h ([1]; DPP-IV 5 U/ml, 37° C.): 41%

- Degradation % at 24 h ([1]; DPP-IV 5 U/ml, 37° C.): 90%
Molecule: HAEGTFTSDVSSYLEGNAAKEFIQWLVKGR-NH2 [GLP-1-amide-Q17N/A24Q]
